Bounds are passed on as bounds.

Data set [1] relates to HCV (HCVcc-Luc) infection of Huh7.5.1 cells. Put plainly: HCV infection inhibition assay. Format: cell-based. The following applies: relative to aglaroxin C (6).
The test system of a further data set is Huh7.5.1 cells. Put plainly: Cytotoxicity, CellTiter-Glo Cell Viability Luminescent Assay. Format: cell-based.
For data set [2], the system named is cap-dependent translation (Firefly luciferase). Format: biochemical. The conditions noted are these: 1 μM compound, Krebs-2 extracts, relative to DMSO.
Data set [3] has as its system HCV IRES-dependent translation (Renilla luciferase). Format: biochemical. The following applies: 1 μM compound, Krebs-2 extracts, relative to DMSO.
A further data set relates to HCV. Format: cell-based. The following applies: time-of-addition; racemic compounds.
Another data set concerns translation. The conditions noted are these: ref 9p; cited from earlier work.
Data set [4] relates to Dengue virus (serotype 2, Thailand 16681 strain). Format: cell-based. The conditions noted are these: Huh7.5.1 cells, MOI 0.1, 2 μM compound for 3 h, RNA 48 h post-infection.
Data set [5] has as its system hepatitis C viral (HCV) entry. The following applies: at a low μM concentration; cited from earlier work.

As for `COc1ccc([C@@]23Oc4cc(OC)cc(OC)c4[C@]2(O)c2nc(-c4cccc(OC)c4)[nH]c(=O)c2[C@H]3c2ccccc2)cc1` [12s], the “inhibition of HCV infection in comparison to 6 (fold)” value in data set [1] was “three-fold greater inhibition”. In the data set with Huh7.5.1 cells, the “cell death at 200 μM” value is given as “less than 50%”; the cell death reached is < 50%; the “maximum cytotoxicity plateau, cell death” value is 35%. The “translation inhibition of firefly luciferase (cap-dependent)” value (from here on “translation inhibition … (cap-dependent)”) in data set [2] was “minimal”. Besides, in data set [3], the “inhibition of HCV mRNA (IRES-dependent) translation” value is reported as “not inhibited”. In addition, in the data set on HCV, the “anti-HCV activity, compound added 3 h after infection was initiated” value was “partially lost their activity” and the “anti-HCV activity, compound added together with the virus” value was “maximal anti-HCV activity”.

As to `CONC(=O)[C@H]1[C@@H](O)[C@@]2(O)c3c(OC)cc(OC)cc3O[C@@]2(c2ccc(OC)cc2)[C@@H]1c1ccccc1` [CR-1–31-B], in data set [2], the “translation inhibition … (cap-dependent)” value was “strong inhibition”.

As to `COc1ccc([C@@]23Oc4cc(OC)cc(OC)c4[C@]2(O)C2=C(C(=O)N4CCC[C@H]4N2)[C@H]3c2ccccc2)cc1` [compound 5, aglaiastatin], the “translation inhibition (in words)” value in the data set with translation is “promising translation inhibitor”.

Consider `COc1ccc([C@@]23Oc4cc(OC)cc(OC)c4[C@]2(O)[C@H](O)[C@H](C(=O)N(C)C)[C@H]3c2ccccc2)cc1` [rocaglamide], for which the “inhibition of Dengue virus infection” value in data set [4] was “inhibited”.

Regarding aglaroxin C [compound 6], the “translation inhibition … (cap-dependent)” value in data set [2] is “minimal”. In data set [3], the “inhibition of HCV mRNA (IRES-dependent) translation” value is on record as “not inhibited”. In the data set on HCV, the “anti-HCV activity, compound added 3 h after infection was initiated” value is reported as “partially lost their activity” and the “anti-HCV activity, compound added together with the virus” value is given as “maximal anti-HCV activity”. For the same compound, the “translation inhibition (in words)” value in the data set on translation is listed as “only moderate translation inhibition”. For the same compound, the “inhibition of HCV entry into host cells” value in data set [5] is given as “inhibited”.

Values taken from publication PMC6583776 (Journal of the American Chemical Society, 2019).
